Measured values from patent US9066516B2, “Uses of thaxtomin and thaxtomin compositions as herbicides” (priority 2008, dated 2015).

Legend:
Type in all cases: in vivo
[1] = tested on: broad-leaf mustard; assay: Greenhouse synergy test MBI-005 + commercial herbicides (Example 11); conditions: cyhalofop 0.051 mg/mL, 14 days
Experimental: (§1) The test species barnyard grass, ragweed, sedge, and broad-leaf mustard were used for the valuation of synergy between MBI-005 and the rice herbicides clomazone, penoxsulam, cyhalofop, fenoxaprop-p-ethyl, bispyribac-sodium, thiobencarb, and propanil.
(§2) There were 3 replicates per treatment which were sprayed with approximately ⅔ ml per replicate. The treatments were completely randomized and kept in a greenhouse at 25° C. The efficacy was rated at 7 and 14 days post treatment.

[2] = tested on: sedge; assay: as above; conditions: cyhalofop 1.176 mg/mL, 14 days
Experimental: as §1, §2

[3] = tested on: common water plantain; assay: Greenhouse test cyhalofop + thaxtomin A (Example 7); conditions: Cyhalofop 6.5 oz/acre, no thx A; 21-day evaluation
Experimental: (§3) Cyhalofop (2-[4-(4-cyano-2-fluorophenoxy)phenoxy]propanoic acid, butyl ester) is also mixed together with adjuvant containing ethyl oleate, polyethylene dialky ester and ethoxylated nonylphenol (2.5% v/v) and increasing concentrations of thaxtomin A (purified from the ATCC strain 49003) at concentrations 0.1, 0.2 and 0.4 mg/ml. The concentrations of the 2-[4-(4-cyano-fluorophenoxy)phenoxy]propanoic acid, butyl ester before dilution are 29.6% (2.38 lb/gal) and 21.7% (2 lb/gal), respectively. The effect of these mixtures on the growth of common water plantain, red stem, smallflower sedge and sprangletop is determined in the greenhouse. Similarly, rice plants of variety M104 are grown and tested for phytotoxic effects, and all plants are evaluated 7, 14, and 21 days after treatment.

[4] = tested on: red stem; assay: as above; conditions: Cyhalofop 6.5 oz/acre, no thx A; 21-day evaluation
Experimental: as §3

[5] = tested on: smallflower sedge; assay: as above; conditions: Cyhalofop 6.5 oz/acre, no thx A, 21-day evaluation
Experimental: as §3

[6] = tested on: sprangletop; assay: as above; conditions: Cyhalofop 6.5 oz/acre, no thx A, 21-day evaluation
Experimental: as §3

## CCCCOC(=O)C(C)Oc1ccc(Oc2ccc(C#N)cc2F)cc1 (centres unmarked) [Cyhalofop, 2-[4-(4-cyano-2-fluorophenoxy)phenoxy]propanoic acid, butyl ester]
[1]
  % Control Product: 11.7%
[2]
  % Control Product: 3.3%
[3]
  Waterplantain % control: 8%
[4]
  Redstem % control: 75%
[5]
  Sedge % control: 0%
[5]; listed as Clincher CA
  Sedge % control: poor on sedges
[6]
  Sprangletop % control: 90%
[6]; listed as Clincher CA
  Sprangletop % control: good efficacy against grass weeds
